Measurements as given in patent US20260256868A1, “COMBINATION HERBAL MEDICINES FOR THE TREATMENT OF INFLAMMATORY BOWEL DISORDERS” (EVINATURE LTD., priority 2022, published 2026).

Tested on: cytochrome P450 1A1 (CYP1A1)
Assay: CYP1A1 expression in colonic mucosal tissue of UC patients by RT-PCR (Example 8)
Type: in vivo, human
Settings: mucosal healing (Mayo sub-score 0/1) after treatment
Description: AhR is a ligand-activated transcription factor that ultimately acts in the nucleus in promoting transcription of various genes, including among others cytochrome P450 1A1 (CYP1A1) which is one of the most important xenobiotic-metabolizing enzymes and an important regulator of immune response in the intestine. Therefore, the inventors studied the expression of CYP1A1 in samples of colonic mucosal tissue obtained from UC patients, using RT-PCR.
Samples of colonic tissue were obtained during lower endoscopy from UC patients treated with CurQD and patients treated by other medications or placebo. Tissue specimens were immersed in liquid nitrogen. Biopsy samples were lysed and homogenized in TRI-Reagent and extracted according to the manufacturer's instructions (Life technologies, USA). Reverse transcription was performed on lug total RNA using the High Capacity RNA to cDNA kit according to the manufacturer's instructions (Applied Biosystems Foster City, CA USA) and Hs01054796_g1 assay for CYP1A1 and Hs99999905_m1 assay for GAPDH (housekeeping gene).

Question: Which “median CYP1A1 expression in patients who achieved mucosal healing” value does the source give for `Nc1ccc(O)c(C(=O)O)c1` [Batch 5ASA, 5-aminosalicylic acid] here?
Answer: 4.6
